Experiment [1] has as its system BxPC3 (pancreas adenocarcinoma) cell line. In words: Cell viability assay (Cell Titer Glo), growth inhibition. It counts as cell-based, human. As to the method: (§1) Growth inhibition of the compound comprises in the invention was tested in vitro using human cancer cell cultures
(§2) HepG2 (liver human hepatocellular carcinoma), BxPC3 and Capan-2 (adenocarcinomas), A549 (lung carcinoma), HCT-116 (colorectal carcinoma) and MCF-7 (breast tumor) cell lines were obtained from ATCC. The HepG2, BxPC3, Capan-2 and MCF-7 cells were placed into 75 ccm^3 tissue culture flasks and grown at 37° C. under a humidified 5% CO2 atmosphere in EMEM and RPMI-1640 medium respectively with 10% fetal bovine serum and 2% penicillin-streptomycin. Trypsin (0.05%) was used to detach cells from the bottom of flask.
(§3) Cells were plated in 96 well plates at a density of 10^4 cells/well and grown for 24 h. Cells were treated with different concentrations of the test compounds or vehicle alone (DMSO) and grown at 37° C. under a humidified 5% CO2 atmosphere. Their corresponding medium was used to dilute the 10 mM stocks of each compound to obtain 1 mM stock solutions and subsequently, the treatment concentrations. After 96 hours of incubation, the plates were equilibrated at room temperature for 30 minutes, […] of Cell Titer Glo® Luminometric Cell Viability Assay reagent (Promega) was added into each well, put on an orbital shaker for 2 minutes and incubated for 10 minutes at room temperature. The plate was transferred to a luminometer (Glomax Promega) and the luminescent signal was recorded. Each treatment at different concentration and the control group were triplicates or duplicates.
(§4) This is a homogeneous method to determine the number of viable cells in culture based on quantification of the ATP present which signals the presence of metabolically active cells.
A general note: Cellular ATP, detected with luciferase, serves as a proxy for viable cell number.

For experiment [2], the system named is Capan-2 (pancreas adenocarcinoma) cell line. The experiment is described as above. The experiment is classed as cell-based, human. The procedure:
as §1, §2, §3, §4

The subject of experiment [3] is HCT-116 (colorectal carcinoma) cell line. The experiment is described as above. The experiment is classed as cell-based. The settings on record: Homo sapiens, 96 hours of incubation, read-out: Growth Inhibition (%) At 20 μM, HCT-116 (Colon). The procedure:
as §1, §2, §3, §4

The test system of experiment [4] is MCF-7 (breast tumor) cell line. The experiment is described as above. It counts as cell-based. The note with it: Homo sapiens, MCF7, 96 hours of incubation. The procedure: as §1, §2, §3, §4
The subject of experiment [5] is HepG2 (liver human hepatocellular carcinoma) cell line. The experiment is described as above. The experiment is classed as cell-based. The procedure:
as §1, §2, §3, §4

The test system of experiment [6] is A549 (lung carcinoma) cell line. The experiment is described as above. It counts as cell-based. The settings on record: Homo sapiens, 96 hours of incubation. The procedure:
as §1, §2, §3, §4

A further experiment has as its system Panc-1 (pancreas) cells. The experiment can be described thus: Growth inhibition in cancer cell lines (FIG. 5). It counts as cell-based, human. The settings on record: KRAS mutation.
From the text: Molecules such as LCB-2151 and LCB-2132 (Group B) and LCB-2179 (Group C) indeed show antiproliferative activities against cancer cell lines with KRAS mutations. FIG. 5 presents the activity of LCB-2151, LCB-2179, LCB-2132 and Gemcitabine in different cancer cell lines. Most liver and pancreas cell lines have the KRAS protein (oncogene identified in Kiersten rat sarcoma virus), which alters its signal transduction pathway, are resistant to Gemcitabine. […] Both HepG-2 (liver) and Panc-1 (pancreas) have the KRAS mutation and are resistant to Gemcitabine.
as §3

The subject of experiment [7] is KRAS mutated human pancreatic and liver cancer cell lines (HepG-2, Panc-1, Capan-2). The experiment can be described thus: Activity in KRAS mutated, Gemcitabine-resistant cancer cell lines. It counts as cell-based. As to the method:
Liver and pancreatic cancer patients have an extremely poor survival rate (Table 1).
as §3

The next experiment has as its system pancreatic cancer cells. The settings on record: background, reported; cited from earlier work.
Setting [8] is: Homo sapiens, BXPC-3, 96 h, read-out: Growth Inhibition (%) At 20 μM, BxPC3 (Pancreas).
Setting [9] is: Homo sapiens, Capan-2, 96 h, read-out: Growth Inhibition (%) At 20 μM, Capan-2 (Pancreas).
Where [10] appears, read: Homo sapiens, HepG2, 96 h, read-out: Growth Inhibition (%) At 20 μM, HepG2 (Liver).
The mark [11] stands for this setting: BXPC3 (pancreas), KRAS wild type.
Setting [12] is: Homo sapiens, BXPC-3; read-out: IC50 (μM), BxPC3 (Pancreas), antiproliferative activity.
Where [13] appears, read: Homo sapiens, Capan-2; read-out: IC50 (μM), Capan-2 (Pancreas), antiproliferative activity.
Setting [14] is: Homo sapiens, HepG2; read-out: IC50 (μM), HepG2 (Liver), antiproliferative activity.

Like-named read-outs stand apart in the source and are kept apart here.

By inhibition is commonly meant the percentage by which the read-out fell short of the control. Regarding `CC(C)OC(=O)[C@H](C)NP(=O)(OC[C@H]1O[C@@H](n2cnc3c(N)nc(Cl)nc32)[C@H](F)C1(C)COP(=O)(N[C@@H](C)C(=O)OC(C)C)Oc1ccccc1)Oc1ccccc1` (stereo partly shown) [LCB2080], the inhibition at 20 µM in experiment [1] (setting [8]) is 16%; in experiment [2] (setting [9]), 58%; in experiment [3], 40%; in experiment [4] it was 79%; in [5] (setting [10]), 0%; in [6], 34%.
As to `Nc1ccn([C@@H]2O[C@H](CO)[C@@H](O)C2(F)F)c(=O)n1` [Gemcitabine, reference compound], the “growth inhibition (FIG. 5), in words” value is “growth is blocked” in experiment [1] (setting [11]) and “no growth inhibition” in [2] (Capan-2). For the same molecule, the “plateau of inhibition (FIG. 5)” value in [5] (HepG-2 (liver), KRAS mutation; first of the two plateaus named) is reported as 50%; in the experiment with Panc-1 (pancreas) cells (second of the two plateaus named) it was 30%.
For `COc1nc(Cl)nc2c1ncn2[C@@H]1O[C@H](COP(=O)(N[C@@H](C)C(=O)OC(C)C)Oc2ccccc2)C(C)(COP(=O)(N[C@@H](C)C(=O)OC(C)C)Oc2ccccc2)[C@H]1F` (stereo partly shown) [LCB2079], the inhibition at 20 µM in experiment [1] (setting [8]) amounted to 40%; in experiment [2] (setting [9]), 50%; in [3], 51%; in experiment [4], 96%; in experiment [5] (setting [10]) it was 72%; in [6], 70%. Further, in experiment [4] (50 μM), the inhibition at 50 µM was more than 96%.
The term IC50 denotes the concentration at which inhibition is half-maximal. For `CC(C)(CCC(CCSCc1ccc(F)cc1)SCc1ccc(F)cc1)CC(=O)Nc1ccn([C@@H]2O[C@H](CO)[C@@](C)(CO)C2(F)F)c(=O)n1` (stereo partly drawn) [LCB-2140, N-(1-((2R,4R,5S)-3,3-difluoro-4,5-bis(hydroxymethyl)-4-methyltetrahydrofuran-2-yl)-2-oxo-1,2-dihydropyrimidin-4-yl)-6,8-bis((4-fluorobenzyl)thio)-3,3-dimethyloctanamide], the half-maximal inhibitory concentration (IC50) worked out at 8 µM in experiment [1] (setting [12]), 12.5 µM in experiment [2] (setting [13]) and 8 µM in [5] (setting [14]).
Consider `CC(C)OC(=O)[C@H](C)NP(=O)(OC[C@H]1O[C@@H](n2cnc3c(N)ncnc32)C(F)(F)C1(C)CO)Oc1ccccc1` (stereo partly shown) [LCB2093], for which the inhibition at 20 µM in experiment [1] (setting [8]) amounted to 6%; in experiment [2] (setting [9]), 22%; in experiment [3], 28%; in experiment [4], 14%; in experiment [5] (setting [10]), 6%; in experiment [6], 0%.
In the case of `CC(C)(CC[C@H](CCSCc1ccc(C(F)(F)F)cc1)SCc1ccc(C(F)(F)F)cc1)CC(=O)Nc1ccn([C@@H]2O[C@H](CO)[C@@](C)(CO)C2(F)F)c(=O)n1` [LCB-2151, (R)—N-(1-((2R,4R,5S)-3,3-difluoro-4,5-bis(hydroxymethyl)-4-methyltetrahydrofuran-2-yl)-2-oxo-1,2-dihydropyrimidin-4-yl)-3,3-dimethyl-6,8-bis((4-(trifluoromethyl)benzyl)thio) octanamide], in [7], the “EC90 activity against KRAS mutated cancer cell lines resistant to Gemcitabine” value (shortened to “EC90 activity”) was “show EC90 activity”. In addition, the “growth inhibition (FIG. 5), in words” value is recorded as “block completely the growth” in experiment [1] (setting [11]); “block completely the growth” in [2] (Capan-2); “block completely the growth” in experiment [5] (HepG-2 (liver), KRAS mutation); “block completely the growth” with Panc-1 (pancreas) cells. Besides, the figures for the IC50 in experiment [1] (setting [12]), in experiment [2] (setting [13]) and in experiment [5] (setting [14]) were 5 µM, 8 µM and 8 µM, respectively.
Regarding `CC(C)OC(=O)[C@H](C)NP(=O)(OC[C@H]1O[C@@H](n2cnc3c(N)nc(Cl)nc32)C(F)(F)C1(C)COP(=O)(N[C@@H](C)C(=O)OC(C)C)Oc1ccccc1)Oc1ccccc1` (stereo partly shown) [LCB2105], the inhibition at 20 µM in experiment [1] (setting [8]) was found to be 47%; in experiment [2] (setting [9]) it was 48%; in experiment [3], 53%.
As usually defined, the EC50 is the concentration giving half of the maximal effect. As for `CCCCCCCC(=O)Nc1ccn([C@@H]2O[C@H](CO)[C@@H](O)C2(F)F)c(=O)n1`, in the experiment with pancreatic cancer cells, the concentration giving a half-maximal response (EC50) is 100 µM.
With `CC(C)OC(=O)[C@H](C)NP(=O)(OC[C@H]1O[C@@H](n2ccc(NC(=O)CC(C)(C)CC[C@H](CCSCc3ccc(C(F)(F)F)cc3)SCc3ccc(C(F)(F)F)cc3)nc2=O)[C@](C)(CO)[C@@H]1O)Oc1ccccc1` (stereo partly drawn) [LCB-2179, Isopropyl ((((2R,3S,4R,5R)-5-(4-(3,3-dimethyl-6,8-bis((4-(trifluoromethyl)benzyl)thio)octanamido)-2-oxopyrimidin-1(2H)-yl)-3-hydroxy-4-(hydroxymethyl)-4-methyltetrahydrofuran-2-yl)methoxy)(phenoxy)phosphoryl)-L-alaninate], the “EC90 activity” value in experiment [7] was “show EC90 activity”. Further, the “growth inhibition (FIG. 5), in words” value in [1] (setting [11]) was “block completely the growth”; in experiment [2] (Capan-2), “block completely the growth”; in experiment [5] (HepG-2 (liver), KRAS mutation), “block completely the growth”; in the experiment with Panc-1 (pancreas) cells, “block completely the growth”. For the same molecule, the half-maximal inhibitory concentration (IC50) in [1] (Homo sapiens, BXPC-3, read-out: IC50 (μM), BxPC3 (Pancreas), antiproliferative activity) is 7 µM; in experiment [2] (Homo sapiens, Capan-2, read-out: IC50 (μM), Capan-2 (Pancreas), antiproliferative activity), 15 µM; in experiment [5] (Homo sapiens, HepG2, read-out: IC50 (μM), HepG2 (Liver), antiproliferative activity), 15 µM.
`CC(C)OC(=O)[C@H](C)NP(=O)(OC[C@H]1O[C@@H](n2cnc3c(NCc4ccccc4)ncnc32)C(F)(F)C1(C)COP(=O)(N[C@@H](C)C(=O)OC(C)C)Oc1ccccc1)Oc1ccccc1` (stereo partly shown) [LCB2095]: the inhibition at 20 µM stood at 67% in experiment [1] (setting [8]); 46% in [2] (setting [9]); 31% in [3]; 49% in experiment [4]; 0% in experiment [5] (setting [10]); 3% in experiment [6].
For the molecule `CC(C)OC(=O)[C@H](C)NP(=O)(OC[C@H]1O[C@@H](n2cnc3c(N)ncnc32)C(F)(F)C1(C)COP(=O)(N[C@@H](C)C(=O)OC(C)C)Oc1ccccc1)Oc1ccccc1` (stereo partly shown) [LCB2092], the inhibition at 20 µM in experiment [1] (setting [8]) was determined as 62%; in experiment [2] (setting [9]) it was 48%; in experiment [3], 60%; in experiment [4], 54%; in [5] (setting [10]), 16%; in experiment [6] it was 25%.
`CC(C)(CCC(CCSCc1ccc(C(F)(F)F)cc1)SCc1ccc(C(F)(F)F)cc1)CC(=O)Nc1ccn([C@@H]2O[C@H](CO)[C@@](C)(CO)C2(F)F)c(=O)n1` (stereo partly drawn) [LCB-2139, N-(1-((2R,4R,5S)-3,3-difluoro-4,5-bis(hydroxymethyl)-4-methyltetrahydrofuran-2-yl)-2-oxo-1,2-dihydropyrimidin-4-yl)-3,3-dimethyl-6,8-bis((4-(trifluoromethyl)benzyl)thio)octanamide]: the IC50 in experiment [1] (setting [12]), in experiment [2] (setting [13]) and in experiment [5] (setting [14]) was 8 µM in each case.
Turning to `CC(C)(CCC(CCSCc1ccc(C(F)(F)F)cc1)SCc1ccc(C(F)(F)F)cc1)CC(=O)Nc1ccn([C@H]2CC(O)[C@@H](CO)O2)c(=O)n1` (stereo partly shown) [LCB-2132], the “EC90 activity” value in [7] was “show EC90 activity”.
As for `CC(C)OC(=O)[C@H](C)NP(=O)(OC[C@H]1O[C@@H](n2cnc3c(NCc4ccccc4)nc(Cl)nc32)[C@H](F)C1(C)COP(=O)(N[C@@H](C)C(=O)OC(C)C)Oc1ccccc1)Oc1ccccc1` (stereo partly shown) [LCB2076], the inhibition at 20 µM in [1] (setting [8]) was determined as 25%; in experiment [2] (setting [9]), 14%; in experiment [3], 10%; in experiment [4], 69%; in experiment [5] (setting [10]), 0%.

(Values after patent US11453695B2, “Nucleoside analogues and methods of use thereof” (priority 2016, dated 2022).)
